{"source": "patent US10207982B2", "about": "“Solid forms of desvenlafaxine” (ALPARIS, S.A. DE C.V., priority 2016, dated 2019)", "key": {"[1]": {"assay": "Dissolution rate test in Wood apparatus, amorphous NSF", "format": "physicochemical", "details": "for Dissolution Rate Constants: 150 mg tablets, 37° C., 50 rpm; for Difference in dissolution rate between dissolution media: pH 1.2 versus pH 6.8; for Dissolution rate as compared to the neutral DSV: FIGS. 4A-4I, different pH values", "procedure": "The dissolution rate tests were performed in aqueous media, in a Wood apparatus with 150 mg tablets at 37° C. and 50 rpm in different dissolution media, as shown in Tables 2 and 3."}, "[2]": {"assay": "Indicative physical stability test (X-ray powder diffraction)", "format": "physicochemical", "details": "40° C., 75% humidity, 30 days", "procedure": "The amorphous NSF obtained from DSV:3-HB, DSV:3,4-DHB and DSV:3,4,5-THB were subjected to physical stability tests, wherein the NSF were subjected to temperatures of 45 and 50° C. in dry conditions (no humidity), and to 40° C., 75% humidity for 30 days."}, "[3]": {"assay": "Comparative dissolution profiles of five solid phases", "format": "physicochemical", "parameters": "Dissolution rate constant k: unit not given here", "details": "for Dissolution rate relative to the other shown phases: pH 1.2, 4.5 and 6.8; for Dissolution rate constant k: 37° C., 50 rpm", "procedure": "FIG. 14. Dissolution profile in HCl solution (pH 1.2, 37° C., 50 rpm, n=3, ±SD) of the new crystalline solid phase of desvenlafaxine-3,4-dihydroxybenzoic acid (crystalline DSV:3,4-DHB), and comparison with the new amorphous solid phase of desvenlafaxine-3,4-dihydroxybenzoic acid (amorphous DSV:3,4-DHB), the new crystalline solid phase of desvenlafaxine-2,4-dihydroxybenzoic acid (crystalline DSV:2,4-DHB), desvenlafaxine (DSV), and desvenlafaxine succinate (DSV succinate). FIG. 15. Dissolution profile in acetate buffer (pH 4.5, 37° C., 50 rpm, n=3, ±SD) of the new crystalline solid phase of desvenlafaxine-3,4-dihidroxibenzoic acid (crystalline DSV:3,4-DHB), and comparison with the new amorphous solid phase of desvenlafaxine-3,4-dihydroxybenzoic acid (amorphous DSV:3,4-DHB), the new crystalline solid phase of desvenlafaxine-2,4-dihydroxybenzoic acid (crystalline DSV:2,4-DHB), desvenlafaxine (DSV), and desvenlafaxine succinate (DSV succinate). FIG. 16. Dissolution profile in phosphate buffer (pH 6.8, 37° C., 50 rpm, n=3, ±SD) of the new crystalline solid phase of desvenlafaxine-3,4-dihydroxybenzoic acid (crystalline DSV:3,4-DHB), and comparison with the new amorphous solid phase of desvenlafaxine-3,4-dihydroxybenzoic acid (amorphous DSV:3,4-DHB), the new crystalline solid phase of desvenlafaxine-2,4-dihydroxybenzoic acid (crystalline DSV:2,4-DHB), desvenlafaxine (DSV), and desvenlafaxine succinate (DSV succinate). A comparative test was carried out for the dissolution profiles at pH 1.2, 4.5 and 6.8 for the new crystalline phase DSV:3,4-DHB with respect to the amorphous NSF with the same co-former, the crystalline NSF with 2,4-dihydroxybenzoic acid, as well as desvenlafaxine base and the commercial salt (desvenlafaxine succinate)."}, "[4]": {"assay": "Thermogravimetric analysis (TGA/DSC) of crystalline NSF", "format": "physicochemical", "procedure": "The compound was observed as stable until 190° C., the temperature at which decomposition starts to occur.\nThe crystalline NSF of DSV:2,4-DHB was also characterized by X-ray powder diffraction (see FIG. 10), as well as thermogravimetric analysis (TGA/DSC) (see FIG. 11)."}, "[5]": {"assay": "Intrinsic dissolution of the crystalline NSF DSV:3,4-DHB", "format": "physicochemical", "procedure": "Dissolution profiles were assessed for the crystalline NSF of DSV:3,4-DHB. The rate constant values are grouped in Table 6."}, "[6]": {"format": "physicochemical", "excerpt": "Solubility tests could not be determined because the amorphous NSF obtained are very soluble and a large amount is required to saturate the solution."}}}
{"smiles": "CN(C)CC(c1ccc(O)cc1)C1(O)CCCCC1", "note": "(racemic) [DSV, (±)-1-[2-(dimethylamino)-1-(4-hydroxyphenyl)ethyl]cyclohexanol, reference compound]", "values": [{"measurement": "Dissolution Rate Constants", "setting": "[1]; pH 1.2", "value": 6.9, "unit": "mg/cm^2 · min"}, {"measurement": "Difference in dissolution rate between dissolution media", "setting": "[1]", "value": 14, "unit": "times higher"}, {"measurement": "Dissolution Rate Constants", "setting": "[1]; pH 4.5", "value": 1.2, "unit": "mg/cm^2 · min"}, {"measurement": "Dissolution Rate Constants", "setting": "[1]; pH 6.8", "value": 0.5, "unit": "mg/cm^2 · min"}, {"measurement": "Dissolution Rate Constants", "setting": "[1]; water", "value": 0.0, "unit": "mg/cm^2 · min"}]}
{"smiles": "CN(C)CC(c1ccc(O)cc1)C1(O)CCCCC1.O=C(O)c1ccc(O)c(O)c1", "note": "(centres unmarked) [Amorphous DSV:3,4-DHB, desvenlafaxine-3,4-dihydroxybenzoic acid]", "values": [{"measurement": "Dissolution rate as compared to the neutral DSV", "setting": "[1]", "value": "higher dissolution rate"}, {"measurement": "Dissolution Rate Constants", "setting": "[1]; pH 1.2", "value": 4.4, "unit": "mg/cm^2 · min"}, {"measurement": "Difference in dissolution rate between dissolution media", "setting": "[1]", "value": "lower or almost null difference"}, {"measurement": "Dissolution Rate Constants", "setting": "[1]; pH 4.5", "value": 5.0, "unit": "mg/cm^2 · min"}, {"measurement": "Dissolution Rate Constants", "setting": "[1]; pH 6.8", "value": 5.7, "unit": "mg/cm^2 · min"}, {"measurement": "Dissolution Rate Constants", "setting": "[1]; water", "value": 2.3, "unit": "mg/cm^2 · min"}, {"measurement": "Physical stability", "setting": "[2]", "value": "only possible to characterize"}, {"measurement": "Quotient (kNSF/kDSV)", "setting": "[3]; pH 1.2", "value": 5.0}, {"measurement": "Dissolution rate relative to the other shown phases", "setting": "[3]", "value": "the higher dissolution rate"}, {"measurement": "Dissolution rate constant k", "setting": "[3]; pH 1.2, HCl solution", "value": 6.69}, {"measurement": "Quotient (kNSF/kDSV)", "setting": "[3]; pH 4.5", "value": 18.4}, {"measurement": "Dissolution rate constant k", "setting": "[3]; pH 4.5, acetate buffer", "value": 6.81}, {"measurement": "Quotient (kNSF/kDSV)", "setting": "[3]; pH 6.8", "value": 17.0}, {"measurement": "Dissolution rate constant k", "setting": "[3]; pH 6.8, phosphate buffer", "value": 5.45}]}
{"smiles": "CN(C)CC(c1ccc(O)cc1)C1(O)CCCCC1.O=C(O)c1ccc(O)cc1O", "note": "(centres unmarked) [Crystalline DSV:2,4-DHB, desvenlafaxine-2,4-dihydroxybenzoic acid]", "values": [{"measurement": "Stable until, temperature at which decomposition starts", "setting": "[4]", "value": "about 150 °C"}, {"measurement": "Quotient (kNSF/kDSV)", "setting": "[3]; pH 1.2", "value": 0.79}, {"measurement": "Dissolution rate relative to the other shown phases", "setting": "[3]", "value": "lower dissolution rate than the commercial salt (succinate) and any of the other shown phases"}, {"measurement": "Dissolution rate constant k", "setting": "[3]; pH 1.2, HCl solution", "value": 1.07}, {"measurement": "Quotient (kNSF/kDSV)", "setting": "[3]; pH 4.5", "value": 0.94}, {"measurement": "Dissolution rate constant k", "setting": "[3]; pH 4.5, acetate buffer", "value": 0.35}, {"measurement": "Quotient (kNSF/kDSV)", "setting": "[3]; pH 6.8", "value": 0.71}, {"measurement": "Dissolution rate constant k", "setting": "[3]; pH 6.8, phosphate buffer", "value": 0.23}]}
{"smiles": "CN(C)CC(c1ccc(O)cc1)C1(O)CCCCC1.O=C(O)c1ccc(O)c(O)c1", "note": "(centres unmarked) [Crystalline DSV:3,4-DHB, 3,4-dihydroxybenzoate salt of anhydrous desvenlafaxine]", "values": [{"measurement": "Intrinsic dissolution rate constant k", "setting": "[5]; pH 1.2", "value": 2.48, "unit": "mg/cm2 · min"}, {"measurement": "Intrinsic dissolution rate constant k", "setting": "[5]; pH 4.5", "value": 2.19, "unit": "mg/cm2 · min"}, {"measurement": "Intrinsic dissolution rate constant k", "setting": "[5]; pH 6.8", "value": 1.43, "unit": "mg/cm2 · min"}, {"measurement": "Stable until, temperature at which decomposition starts", "setting": "[4]", "value": 190, "unit": "°C"}, {"measurement": "Quotient (kNSF/kDSV)", "setting": "[3]; pH 1.2", "value": 1.8}, {"measurement": "Dissolution rate constant k", "setting": "[3]; pH 1.2, HCl solution", "value": 2.47}, {"measurement": "Quotient (kNSF/kDSV)", "setting": "[3]; pH 4.5", "value": 5.9}, {"measurement": "Dissolution rate constant k", "setting": "[3]; pH 4.5, acetate buffer", "value": 2.19}, {"measurement": "Quotient (kNSF/kDSV)", "setting": "[3]; pH 6.8", "value": 4.8}, {"measurement": "Dissolution rate constant k", "setting": "[3]; pH 6.8, phosphate buffer", "value": 1.54}]}
{"smiles": "CN(C)CC(c1ccc(O)cc1)C1(O)CCCCC1", "note": "(centres unmarked) [DSV-Succinate, desvenlafaxine succinate, reference compound]", "values": [{"measurement": "Quotient (kNSF/kDSV)", "setting": "[3]; pH 1.2", "value": 2.1}, {"measurement": "Quotient (kNSF/kDSV)", "setting": "[3]; pH 4.5", "value": 6.9}, {"measurement": "Quotient (kNSF/kDSV)", "setting": "[3]; pH 6.8", "value": 10.0}]}
{"smiles": "CN(C)CC(c1ccc(O)cc1)C1(O)CCCCC1.O=C(O)c1cc(O)c(O)c(O)c1", "note": "(centres unmarked) [DSV:3,4,5-THB, desvenlafaxine-3,4,5-trihydroxybenzoic acid]", "values": [{"measurement": "Dissolution rate as compared to the neutral DSV", "setting": "[1]", "value": "higher dissolution rate"}, {"measurement": "Dissolution Rate Constants", "setting": "[1]; pH 1.2", "value": 5.4, "unit": "mg/cm^2 · min"}, {"measurement": "Dissolution Rate Constants", "setting": "[1]; pH 4.5", "value": 6.1, "unit": "mg/cm^2 · min"}, {"measurement": "Dissolution Rate Constants", "setting": "[1]; pH 6.8", "value": 9.0, "unit": "mg/cm^2 · min"}, {"measurement": "Dissolution Rate Constants", "setting": "[1]; water", "value": 1.6, "unit": "mg/cm^2 · min"}, {"measurement": "Solubility", "setting": "[6]", "value": "the solution did not become saturated"}]}
{"smiles": "CN(C)CC(c1ccc(O)cc1)C1(O)CCCCC1.O=C(O)c1cccc(O)c1", "note": "(centres unmarked) [DSV:3-HB, desvenlafaxine-3-hydroxybenzoic acid]", "values": [{"measurement": "Dissolution Rate Constants", "setting": "[1]; pH 1.2", "value": 5.8, "unit": "mg/cm^2 · min"}, {"measurement": "Dissolution Rate Constants", "setting": "[1]; pH 4.5", "value": 6.1, "unit": "mg/cm^2 · min"}, {"measurement": "Dissolution Rate Constants", "setting": "[1]; pH 6.8", "value": 5.4, "unit": "mg/cm^2 · min"}, {"measurement": "Dissolution Rate Constants", "setting": "[1]; water", "value": 3.8, "unit": "mg/cm^2 · min"}]}
